Measurements as given in PubChem BioAssay AID623863 (Southern Research Specialized Biocontainment Screening …, 2012).
pIC50: −log10 of the molar value. Calls of active or inactive are those of the source. How the calls were made is not given here.

Molecular target: Genome polyprotein (Dengue virus type 2 (strain 16681-PDK53)) (UniProt P29991)
Assay: flavivirus RNA guanylyltransferase activity inhibition – biochemical, secondary assay, dose response (AID 623863)
Conditions: Dengue-2 NS5 guanylylation inhibition; for inhibition: at 50 µM (top of the series)

Genome polyprotein (Dengue virus type 2 (strain 16681-PDK53)), sequence (P29991 whole entry, looked up): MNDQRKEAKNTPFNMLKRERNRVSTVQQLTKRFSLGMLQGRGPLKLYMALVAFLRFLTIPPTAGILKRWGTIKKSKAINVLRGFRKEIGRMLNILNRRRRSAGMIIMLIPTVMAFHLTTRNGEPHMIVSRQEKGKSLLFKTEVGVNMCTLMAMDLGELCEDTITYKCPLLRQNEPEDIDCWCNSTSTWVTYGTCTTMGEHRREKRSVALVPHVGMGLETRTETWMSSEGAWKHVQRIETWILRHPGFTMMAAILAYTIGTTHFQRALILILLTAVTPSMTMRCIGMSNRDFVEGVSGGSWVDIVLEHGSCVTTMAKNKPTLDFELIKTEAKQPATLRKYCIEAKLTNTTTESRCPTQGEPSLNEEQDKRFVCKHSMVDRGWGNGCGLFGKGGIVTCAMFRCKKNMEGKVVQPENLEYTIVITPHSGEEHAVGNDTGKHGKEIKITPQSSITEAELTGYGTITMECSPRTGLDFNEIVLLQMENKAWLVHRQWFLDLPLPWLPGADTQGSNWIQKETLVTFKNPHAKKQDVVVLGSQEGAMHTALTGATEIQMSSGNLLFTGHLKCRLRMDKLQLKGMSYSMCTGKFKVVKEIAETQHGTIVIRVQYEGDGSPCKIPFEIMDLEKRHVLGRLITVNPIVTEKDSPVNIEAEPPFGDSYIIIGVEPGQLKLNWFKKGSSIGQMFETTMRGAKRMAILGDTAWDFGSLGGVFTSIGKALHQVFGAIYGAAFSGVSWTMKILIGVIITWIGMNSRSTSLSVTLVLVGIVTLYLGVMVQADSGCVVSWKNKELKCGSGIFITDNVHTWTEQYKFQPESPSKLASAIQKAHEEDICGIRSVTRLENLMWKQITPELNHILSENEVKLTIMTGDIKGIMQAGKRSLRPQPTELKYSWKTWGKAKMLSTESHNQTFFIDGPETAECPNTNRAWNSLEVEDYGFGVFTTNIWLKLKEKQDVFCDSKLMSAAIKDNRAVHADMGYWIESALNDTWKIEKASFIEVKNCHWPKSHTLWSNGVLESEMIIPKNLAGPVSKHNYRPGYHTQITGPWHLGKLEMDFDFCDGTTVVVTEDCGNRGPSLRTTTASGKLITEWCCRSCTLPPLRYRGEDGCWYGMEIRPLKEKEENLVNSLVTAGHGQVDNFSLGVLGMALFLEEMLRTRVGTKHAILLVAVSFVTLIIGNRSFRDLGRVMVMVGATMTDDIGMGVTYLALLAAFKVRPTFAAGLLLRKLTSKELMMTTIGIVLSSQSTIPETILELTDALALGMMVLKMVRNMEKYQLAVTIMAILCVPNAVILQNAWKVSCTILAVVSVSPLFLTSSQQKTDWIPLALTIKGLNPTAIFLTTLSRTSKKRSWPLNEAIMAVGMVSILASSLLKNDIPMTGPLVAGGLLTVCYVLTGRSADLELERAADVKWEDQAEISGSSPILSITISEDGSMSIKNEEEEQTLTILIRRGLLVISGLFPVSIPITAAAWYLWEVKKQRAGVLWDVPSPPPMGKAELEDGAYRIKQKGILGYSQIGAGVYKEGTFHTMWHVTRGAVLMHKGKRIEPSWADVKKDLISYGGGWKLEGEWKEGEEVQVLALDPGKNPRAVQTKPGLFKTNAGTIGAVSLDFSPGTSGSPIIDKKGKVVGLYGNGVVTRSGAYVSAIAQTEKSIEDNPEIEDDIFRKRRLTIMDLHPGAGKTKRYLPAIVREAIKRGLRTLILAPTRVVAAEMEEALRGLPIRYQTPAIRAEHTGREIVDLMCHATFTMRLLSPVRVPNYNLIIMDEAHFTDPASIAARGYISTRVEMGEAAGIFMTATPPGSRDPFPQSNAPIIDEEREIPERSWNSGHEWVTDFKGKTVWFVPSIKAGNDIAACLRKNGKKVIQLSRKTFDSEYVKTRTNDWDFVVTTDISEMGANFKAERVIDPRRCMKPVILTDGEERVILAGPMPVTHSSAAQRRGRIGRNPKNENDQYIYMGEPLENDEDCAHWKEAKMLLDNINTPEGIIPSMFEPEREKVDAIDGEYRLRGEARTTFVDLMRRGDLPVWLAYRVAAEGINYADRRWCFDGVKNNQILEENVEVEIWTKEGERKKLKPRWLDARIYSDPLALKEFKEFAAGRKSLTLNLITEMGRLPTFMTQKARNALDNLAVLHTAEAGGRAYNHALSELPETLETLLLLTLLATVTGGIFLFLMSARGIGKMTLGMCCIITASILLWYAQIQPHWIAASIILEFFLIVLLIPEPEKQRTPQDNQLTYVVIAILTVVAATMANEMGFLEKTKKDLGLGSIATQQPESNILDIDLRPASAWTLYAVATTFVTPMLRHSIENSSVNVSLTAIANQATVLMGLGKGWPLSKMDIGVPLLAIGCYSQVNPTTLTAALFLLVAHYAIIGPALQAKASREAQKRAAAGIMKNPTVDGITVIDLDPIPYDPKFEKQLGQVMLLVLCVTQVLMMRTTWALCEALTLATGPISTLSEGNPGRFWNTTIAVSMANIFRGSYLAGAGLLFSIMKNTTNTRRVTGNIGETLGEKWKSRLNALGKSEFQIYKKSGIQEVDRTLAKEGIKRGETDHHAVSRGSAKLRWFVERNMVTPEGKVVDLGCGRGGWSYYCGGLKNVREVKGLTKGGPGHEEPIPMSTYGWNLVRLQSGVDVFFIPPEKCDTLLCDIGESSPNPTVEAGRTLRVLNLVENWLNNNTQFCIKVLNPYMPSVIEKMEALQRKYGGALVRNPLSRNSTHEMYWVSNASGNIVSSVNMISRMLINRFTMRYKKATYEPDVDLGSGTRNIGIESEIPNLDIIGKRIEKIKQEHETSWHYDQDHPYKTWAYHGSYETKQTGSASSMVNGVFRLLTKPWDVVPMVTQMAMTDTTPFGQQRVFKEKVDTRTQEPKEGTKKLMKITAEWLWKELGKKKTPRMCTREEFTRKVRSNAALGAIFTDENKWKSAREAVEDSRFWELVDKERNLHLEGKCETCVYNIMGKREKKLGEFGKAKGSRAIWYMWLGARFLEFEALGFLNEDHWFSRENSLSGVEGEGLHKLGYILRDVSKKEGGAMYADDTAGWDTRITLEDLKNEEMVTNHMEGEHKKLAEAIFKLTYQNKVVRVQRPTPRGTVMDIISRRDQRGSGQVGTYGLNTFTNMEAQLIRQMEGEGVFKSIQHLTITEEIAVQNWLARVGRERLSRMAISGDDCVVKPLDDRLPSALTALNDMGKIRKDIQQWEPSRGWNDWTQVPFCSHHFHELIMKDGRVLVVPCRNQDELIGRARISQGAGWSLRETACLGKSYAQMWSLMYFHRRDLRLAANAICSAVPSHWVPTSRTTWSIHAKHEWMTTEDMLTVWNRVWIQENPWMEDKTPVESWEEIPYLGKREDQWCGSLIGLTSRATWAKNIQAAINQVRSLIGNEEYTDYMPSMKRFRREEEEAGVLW

Compound | pIC50 | inhibition
Cc1ccc(S(=O)(=O)Nc2cc(Sc3nc(C)cc(C)n3)c(O)c3ccccc23)cc1 | 4.34 | –
O=[N+]([O-])c1cccc(S(=O)(=O)Nc2cc(Sc3nc4ccccc4s3)c(O)c3ccccc23)c1 | 4.74 | –
Cc1cc(C)c(S(=O)(=O)Nc2cc(SCC(=O)O)c(O)c3ccccc23)c(C)c1 | – | inactive
Cn1c(=O)c2[nH]c(-c3ccc(Cl)cc3)c(O)c2n(C)c1=O | 5.12 | –
O=S(=O)(Nc1cc(Sc2ccccc2)c(O)c2ccccc12)c1ccc(F)cc1 | 4.32 | –
Cc1cc(F)ccc1S(=O)(=O)Nc1cc(SCC(=O)O)c(O)c2ccccc12 | – | inactive
O=[N+]([O-])c1cccc(S(=O)(=O)Nc2cc(SCc3ccccc3)c(O)c3ccccc23)c1 | 5.52 | –
O=S(=O)(Nc1cc(SCc2ccccc2)c(O)c2ccccc12)c1ccc(Cl)cc1 | 5.37 | –
O=S(=O)(Nc1cc(Sc2ncn[nH]2)c(O)c2ccccc12)c1ccc(F)cc1 | – | inactive

The remaining lines, values ahead:

pIC50 | inhibition | Compound
5.10 | – | O=C(O)CSc1cc(NS(=O)(=O)c2ccc(Cl)cc2)c2ccccc2c1O
5.48 | – | O=C(O)CSc1cc(NS(=O)(=O)c2cccc([N+](=O)[O-])c2)c2ccccc2c1O
5.63 | – | O=C(O)CSc1cc(NS(=O)(=O)c2ccc(Br)cc2)c2ccccc2c1O
– | inactive | Cc1ccc(S(=O)(=O)Nc2cc(SCC(=O)O)c(O)c3ccccc23)cc1
– | inactive | O=C(O)CSc1cc(NS(=O)(=O)c2ccc(F)cc2)c2ccccc2c1O
